Paper PMC8315060, “N-terminus-independent activation of c-Src via binding to a tetraspan(in) TM4SF5 in hepatocellular carcinoma is abolished by the TM4SF5 C-terminal peptide application” (Theranostics, 2021)
Where a SMILES comes first, the peptide text is derived from it.

How the values were obtained:
[1] = tested on: SNU449T7 cells stably expressing TM4SF5; assay: Mouse tumor xenograft of TM4SF5-expressing SNU449 cells; format: in vivo, BALB/c-nu/nu mice
Procedure: Mouse tumor xenograft: Four-week-old female or male BALB/c-nu/nu mice were purchased from Orient Co. Ltd (Seungnam, Korea). All animal procedures were performed in accordance with the Seoul National University Laboratory Animal Maintenance Manual and with Institutional Review Board approval (SNU-130311-6-2, SNU-140423-11-7). Mice were housed in a specific pathogen-free room under controlled temperature and humidity. Viable SNU449T7 cells (5 × 10^6) stably expressing TM4SF5 or PLC/PRF/5 cells (10^7) endogenously expressing TM4SF5 were resuspended in sterile PBS and injected subcutaneously into 5-week-old mice (n = 5 or 6, respectively). […] Body weight and tumor volume, which was determined as described previously, were measured daily.
Figure 7 TM4SF5 C-terminal peptides suppress TM4SF5-mediated tumorigenesis and metastasis. […] (E) Degradation of Oregon Green® 488-conjugated gelatin were analyzed for SNU761 cells stably expressing mock (mock) or TM4SF5WT with the 10 μM CPPs treatment for 24 h (mean ± SD values). (F) TM4SF5-null SNU449Cp (Cp) and stably TM4SF5-expressing SNU449Tp (Tp) cells were treated with the 10 μM CPPs for 24 h and then analyzed for transwell migration for 4 h (mean ± SD values in the graph). […] Surface nodules were counted and the mean ± SD values are presented (graph). […]

[2] = tested on: SNU449Tp cells expressing FAK-KD; assay: Transwell migration of FAK-KD-expressing SNU449Tp cells with PP2 or PP3; format: cell-based, human; details: SNU449Tp cells infected with FAK-KD adenovirus, 10 μM, transwell migration 12 h, 10% FBS in lower chamber; Figure S1C
SNU761-TM4SF5 cells = assay: Transwell chemotactic migration of SNU761-TM4SF5 cells with PP2; format: cell-based, human; details: PP2 10 μM, transwell migration 4 h, 10% FBS; Figure 3F and S2B
Procedure: SNU761 cells stably expressing TM4SF5WT were transiently transfected with control siRNA against a scrambled sequence (siControl) or PTP1B (siPTP1B) for 48 h before undergoing the Transwell migration assay for 4 h. Cells were treated with the CPPs before being loaded into the upper chambers. The cells were then analyzed for migration or invasion using Transwell chambers with 8-μm pores (Corning Inc., Corning, NY, USA), where the bottom chamber was filled with 1% BSA alone (in serum-free media) or normal culture media containing 10% FBS as explained previously. After incubation, the number of migrated cells from randomly saved images (n = 10) per condition was counted. The data are graphed as the mean ± standard deviation (SD) for each experimental condition.
Figure S2. TM4SF5-mediated invasion and migration involves PTP1B-regulated c-Src activity. (A) SNU761 cells stably expressing mock or TM4SF5WT were transiently transfected without (No T/F) or with c-Src WT, c-Src SH432, or c-Src SH1 expression constructs for 48 h prior to invasive ECM degradation analysis for 4 h. (B) SNU761 cells stably expressing TM4SF5WT were transiently transfected with control siRNA against a scrambled sequence (siControl) or a sequence in PTP1B (siPTP1B) for 48 h, prior to transwell migration assay for 4 h. […]

[3] = Stability of peptides in mouse serum; format: in vitro ADME; details: C57BL/6 mouse serum, 10 ppm/reaction, 24 h vs 0 h (without mixing with serum), formic acid precipitation, LC (ZORBAX Eclipse C18) with ELSD; one range printed for both peptides; Figure S6A
Procedure: collected after centrifugation at 13,000 × g for 10 min and stored at -20 ℃. To analyze, we used the ZORBAX Eclipse C18 Column (2.6 × 250 mm, 5 μm) in the Agilent 1200 Infinity LC and kept the column temperature at 40 ℃. Injection volume from samples was 20 μL and for the mobile phase, MS grade water with 0.1% formic acid (‘a’) and MS grade acetonitrile (‘b’) were flowed at the velocity of 1 mL/min. The gradient per sample was ‘a’ (5%)/’b’(95%) for 0 and 5 min, ‘a’ (90%)/’b’(10%) for 10 min, and ‘a’ (40%)/’b’(60%) for 15 min. Agilent 1260 infinity ELSD was used with an LC stack for detection. […]

STrEP-tagged TM4SF5WT = STrEP-tagged TM4SF5WT (UniProt O14894); assay: streptavidin pull-down and immunoblot; details: SNU449 cells with STrEP-TM4SF5; 50 kDa band, IP: STrEP lanes
Sequence of STrEP-tagged TM4SF5WT (O14894 whole entry): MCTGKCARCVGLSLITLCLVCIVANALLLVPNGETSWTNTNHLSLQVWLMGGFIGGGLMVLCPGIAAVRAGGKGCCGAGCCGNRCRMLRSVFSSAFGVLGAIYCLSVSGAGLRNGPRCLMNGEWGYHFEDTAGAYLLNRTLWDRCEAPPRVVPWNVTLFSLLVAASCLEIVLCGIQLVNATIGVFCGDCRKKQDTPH

| Compound | peptide remaining after incubation in mouse serum [3] | response (relative band intensity (ImageJ ratio)) (STrEP-tagged TM4SF5WT) | other results |
| --- | --- | --- | --- |
| CC(C)(C)n1nc(-c2ccc(Cl)cc2)c2c(N)ncnc21 [PP2] |  |  | TM4SF5-dependent tumor formation in xenograft ([1]; 3 mg/kg subcutaneous injection every day for 10 days, n = 4, Figure S5A): suppressed TM4SF5-dependent tumor formation; effect on xenograft tumor growth, 15-day treatment ([1]; n = 6, 15 days, PP2 3 mg/kg, TCsr 0.111 nmol/g, TcxC 0.095 nmol/g, Figure S5B): suppressive effect; residual migration of FAK-KD cells [2]: abolished; chemotactic migration of SNU761-TM4SF5 cells (SNU761-TM4SF5 cells): abolished |
| C[C@@H](O)[C@H](NC(=O)[C@@H]1CCCN1C(=O)[C@H](CCCNC(=N)N)NC(=O)[C@H](CCCNC(=N)N)NC(=O)[C@H](CCCNC(=N)N)NC(=O)[C@H](CCC(N)=O)NC(=O)[C@H](CCCNC(=N)N)NC(=O)[C@H](CCCNC(=N)N)NC(=O)[C@H](CCCCN)NC(=O)[C@H](CCCCN)NC(=O)[C@@H](N)CCCNC(=N)N)C(=O)N[C@@H](CS)C(=O)N[C@@H](CCCCN)C(=O)N1CCC[C@H]1C(=O)N[C@@H](CC(=O)O)C(=O)N[C@@H](CCCCN)C(=O)NCC(=O)N[C@@H](CCC(N)=O)C(=O)N[C@@H](CCCNC(=N)N)C(=O)N[C@@H](Cc1c[nH]cn1)C(=O)N[C@@H](CC(=O)O)C(=O)O [TCsr] (H-RKKRRQRRRPTCKPDKGQRHD-OH) | 44-65% |  |  |
| CC[C@H](C)[C@H](NC(=O)[C@@H](NC(=O)[C@H](CS)NC(=O)[C@@H]1CCCN1C(=O)[C@H](CCCNC(=N)N)NC(=O)[C@H](CCCNC(=N)N)NC(=O)[C@H](CCCNC(=N)N)NC(=O)[C@H](CCC(N)=O)NC(=O)[C@H](CCCNC(=N)N)NC(=O)[C@H](CCCNC(=N)N)NC(=O)[C@H](CCCCN)NC(=O)[C@H](CCCCN)NC(=O)[C@@H](N)CCCNC(=N)N)C(C)C)C(=O)N[C@@H](CCSC)C(=O)NCC(=O)N[C@@H](CC(=O)O)C(=O)N[C@@H](CS)C(=O)N[C@@H](CCCNC(=N)N)C(=O)N[C@@H](CCCCN)C(=O)N[C@@H](CCCCN)C(=O)N[C@@H](CCC(N)=O)C(=O)N[C@@H](CC(=O)O)C(=O)N[C@H](C(=O)N1CCC[C@H]1C(=O)N[C@@H](Cc1c[nH]cn1)C(=O)O)[C@@H](C)O [TcxC] (H-RKKRRQRRRPCVIMGDCRKKQDTPH-OH) | 44-65% |  |  |
| c-Src-SH321 Y419F |  | 1 |  |
| c-Src-SH321 Y419F; Y530F |  | 0 |  |
| c-Src-SH321 Y530F |  | 0 |  |
